# Measurements: patent publication US7157494B2, “Dimeric compounds and their use as anti-viral agents” (priority 2001, dated 2007)
# “And” between values parts separate entries of the source, which are not always exact repeats. Equal values may be shown once. Read-outs that look alike come from different tables or passages of the source.
# Legend:
# [1] = Rat lung retention assay (intra-tracheal dosing, compound level in lung tissue); format: in vivo; conditions: for [cmpd] / Mean [cmpd]: rat lung tissue; for [cmpd]: individual animal
# Procedure: Rodents are anaesthetised and dosed with compound of interest by the intra-tracheal route at a dose volume of 0.8 ml/kg. The rodent is then held in the vertical position until full recovery is achieved. […] Any analytical method suitable for detection of this type of compound may be used. The time at which levels of compound fall below the sensitivity of the analytical techniques identified will determine the residency time of the compound in lung tissue.
# Please note that all experiments included a co-dosed internal standard, namely compound 3 of International Patent Publication No. WO 02/20514, to permit comparison. The data are expressed as a ratio with respect to this compound, the structure of which is shown below.
# [2] = system: Influenza A/Sydney/5/97; format: cell-based; conditions: concentration that inhibited CPE by 50%; MDCK cells, up to 72 hours, MTT
# [3] = system: Influenza B/Harbin/7/95; format: cell-based; conditions: concentration that inhibited CPE by 50%; MDCK cells, up to 72 hours, MTT
# [4] = system: B/Hong Kong/5/72 BVLV012; assay: Plaque reduction assay (PRA) in MDCK cells; format: cell-based, influenza B; conditions: for EC50: Influenza B virus, MDCK, read-out: EC50 PRA B/HongK
# Procedure: (§1) Madin Darby Canine Kidney (MDCK) cells are seeded into six well tissue culture plates and grown to confluency via standard methods. Influenza viruses are diluted in a minimal volume of phosphate buffered saline supplemented with 0.2% bovine serum albumin to yield an estimated titre of 50–100 plaque forming units (pfu) per well. After adsorption to the MDCK cells for one hour at 37° C. in a 5% CO2 atmosphere the viral inocula is aspirated and replaced with viral growth media (minimal Eagle's media supplemented with BSA, trypsin and insulin/transferrin/selenium at optimal concentrations) containing sufficient agar or agarose (generally 1–2%) to cause the media to gel at room temperature and at 37° C. in a 5% CO2 atmosphere until plaques develop (generally 2–4 days). Plaques can be visualised with a suitable stain (e.g. 0.4% crystal violet in formal saline) before counting.
# [5] = system: A/New Caledonia/20/99 BVLV008 (H1N1); assay: Plaque reduction assay (PRA) in MDCK cells; format: cell-based, influenza A H1N1; conditions: for EC50: Influenza A virus, H1N1, MDCK
# Procedure: as §1
# [6] = system: A/Bayern/7/95 BVL006 (H1N1); assay: Plaque reduction assay (PRA) in MDCK cells; format: cell-based, influenza A H1N1
# Procedure: as §1
# [7] = system: A/WSN/33 BVLV09 (H1N1); assay: Plaque reduction assay (PRA) in MDCK cells; format: cell-based, influenza A H1N1
# Procedure: as §1
# [8] = system: recent clinical isolates; conditions: in vitro assays involving recent clinical isolates, Woods et al 1993; cited from earlier work
# [9] = system: A/Sydney/5/97 BVLV015 (H3N2); assay: Plaque reduction assay (PRA) in MDCK cells; format: cell-based, influenza A H3N2
# Procedure: as §1
# [10] = system: A/Victoria/3/75 BVLV017 (H3N2); assay: Plaque reduction assay (PRA) in MDCK cells; format: cell-based, influenza A H3N2; conditions: for EC50: Influenza A virus, MDCK, reduces plaque numbers by 50%, A/Victoria/3/75 (H3N2), read-out: EC50 PRA A/Vic
# Procedure: as §1
# [11] = system: A/Panama/2007/99 BVLV008 (H3N2); assay: Plaque reduction assay (PRA) in MDCK cells; format: cell-based, influenza A H3N2; conditions: for EC50: Influenza A virus, H3N2, MDCK, read-out: EC50 PRA A/Pan
# Procedure: as §1
# [12] = system: B/Yamanashi/166/98 BVLV007; assay: Plaque reduction assay (PRA) in MDCK cells; format: cell-based, influenza B
# Procedure: as §1
# [13] = rat, in vivo, 0.1 mg/kg, Mean [cmpd] ng/g
# [14] = reduces plaque numbers by 50%, A/New Caledonia/20/99 (H1N1)
# [15] = reduces plaque numbers by 50%, A/Panama/2007/99 (H3N2)
compound,measurement,setting,value
CC(=O)N[C@H]1[C@H]([C@H](OC(=O)NCCCCNC(=O)c2cccc(C(=O)NCCCCNC(=O)O[C@@H]([C@@H]3OC(C(=O)O)=C[C@H](NC(=N)N)[C@H]3NC(C)=O)[C@H](O)CO)c2)[C@H](O)CO)OC(C(=O)O)=C[C@@H]1NC(=N)N [Compound 1],Ratio Mean [lung] [cmpd]/PCT AU01/01128 compound 3,"[1]; rat, in vivo, 0.1 mg/kg, 48 h",0.44
same,Ratio Mean [lung] [cmpd]/PCT AU01/01128 compound 3,"[1]; rat, in vivo, 0.1 mg/kg, 168 h",0.41
same,concentration at 48 h,[1]; [13],1280 ng/g
same,concentration at 168 h,[1]; [13],372 ng/g
CC(=O)N[C@H]1[C@H]([C@H](OC(=O)NCCCCNS(=O)(=O)c2cccc(S(=O)(=O)NCCCCNC(=O)O[C@@H]([C@@H]3OC(C(=O)O)=C[C@H](NC(=N)N)[C@H]3NC(C)=O)[C@H](O)CO)c2)[C@H](O)CO)OC(C(=O)O)=C[C@@H]1NC(=N)N [Compound 3],Ratio Mean [lung] [cmpd]/PCT AU01/01128 compound 3,"[1]; rat, in vivo, 0.1 mg/kg, 48 h",0.49
same,Ratio Mean [lung] [cmpd]/PCT AU01/01128 compound 3,"[1]; rat, in vivo, 0.1 mg/kg, 168 h",0.36
same,concentration at 48 h,[1]; [13],1410 ng/g
same,concentration at 168 h,[1]; [13],329 ng/g
same,ID50 A/Sydney/5/97,[2],0.1 ng/mL
same,ID50 B/Harbin/7/95,[3],0.07 ng/mL
CC(=O)N[C@H]1[C@H]([C@H](OC(=O)NCCCNC(=O)Cc2ccccc2CC(=O)NCCCNC(=O)O[C@@H]([C@@H]2OC(C(=O)O)=C[C@H](NC(=N)N)[C@H]2NC(C)=O)[C@H](O)CO)[C@H](O)CO)OC(C(=O)O)=C[C@@H]1NC(=N)N [Compound 14],ID50 A/Sydney/5/97,[2],0.2 ng/mL
same,ID50 B/Harbin/7/95,[3],0.3 ng/mL
"CC(=O)N[C@@H]1C(N=C(N)N)C=C(C(=O)O)O[C@H]1[C@H](O)[C@H](O)CO (single isomer, unassigned) [Compound A, 4-guanidino-2-deoxy-2,3-dehydro-N-acetylneuraminic acid, reference compound]",Ratio Mean [lung] [cmpd]/PCT AU01/01128 compound 3,"[1]; rat, in vivo, 0.1 mg/kg, 48 h",0.26
same,Ratio Mean [lung] [cmpd]/PCT AU01/01128 compound 3,"[1]; rat, in vivo, 0.1 mg/kg, 168 h",0.08
same,concentration at 48 h,[1]; [13],352 ng/g
same,concentration at 168 h,[1]; [13],61 ng/g
same,concentration at 48 h,"[1]; rat, in vivo, 0.1 mg/kg, [cmpd] ng/g",421 ng/g
same,EC50,"[4]; reduces plaque numbers by 50%, B/Hong Kong/5/72",21 ng/mL
same,ID50 A/Sydney/5/97,[2],23 ± 24 ng/mL
same,EC50,[5]; [14],0.27 ng/mL
same,EC50 PRA A/New,[5]; [14],0.23 ng/mL
same,EC50,"[6]; Influenza A virus, MDCK, reduces plaque numbers by 50%, A/Bayern/7/95 (H1N1), read-out: EC50 PRA A/Bay",35 ng/mL
same,EC50,"[7]; Influenza A virus, MDCK, reduces plaque numbers by 50%, A/WSN/33 (H1N1)",56 ng/mL
same,EC50 PRA A/WSN,"[7]; reduces plaque numbers by 50%, A/WSN/33 (H1N1)",> 100 ng/mL
same,ID50 B/Harbin/7/95,[3],13 ± 11 ng/mL
same,EC50,[8],20 to 160 nM
same,EC50,"[9]; Influenza A virus, MDCK, reduces plaque numbers by 50%, A/Sydney/5/97 (H3N2), read-out: EC50 PRA A/Syd",2.4 ng/mL
same,EC50,[10],5.5 ng/mL
same,EC50,[11]; [15],2.7 ng/mL
same,EC50 PRA A/Pan,[11]; [15],3 ng/mL
CC(=O)N[C@@H]1[C@@H](NC(=N)N)C=C(C(=O)O)O[C@H]1C(OC(=O)NCCC(=O)NCc1ccc(CNC(=O)CCNC(=O)O[C@@H]([C@@H]2OC(C(=O)O)=C[C@H](NC(=N)N)[C@H]2NC(C)=O)[C@H](O)CO)cc1)[C@H](O)CO (some centres unmarked) [Compound 4],ID50 A/Sydney/5/97,[2],0.3 ng/mL
same,ID50 B/Harbin/7/95,[3],0.4 ng/mL
CC(=O)N[C@H]1[C@H]([C@H](OC(=O)NCCCNC(=O)c2cc(C(=O)O)cc(C(=O)NCCCNC(=O)O[C@@H]([C@@H]3OC(C(=O)O)=C[C@H](NC(=N)N)[C@H]3NC(C)=O)[C@H](O)CO)c2)[C@H](O)CO)OC(C(=O)O)=C[C@@H]1NC(=N)N [Compound 9],ID50 A/Sydney/5/97,[2],0.1 ng/mL
same,ID50 B/Harbin/7/95,[3],0.3 ng/mL
CCOC(=O)C1=C[C@@H](OC(CC)CC)[C@H](NC(C)=O)[C@@H](N)C1 [Oseltamivir],EC50,[4],32 ng/mL
same,EC50,"[12]; Influenza B virus, MDCK, read-out: EC50 PRA B/Yam, reduces plaque numbers by 50%, B/Yamanashi/166/98",0.7 ng/mL
same,EC50,[5]; [14],0.23 ng/mL
same,EC50,[10],0.11 ng/mL
same,EC50,[11]; [15],0.3 ng/mL
CC(=O)N[C@H]1[C@H]([C@H](OC(=O)NCCCNC(=O)c2ccc(C(=O)NCCCNC(=O)O[C@@H]([C@@H]3OC(C(=O)O)=C[C@H](NC(=N)N)[C@H]3NC(C)=O)[C@H](O)CO)cc2)[C@H](O)CO)OC(C(=O)O)=C[C@@H]1NC(=N)N [Compound 5],[cmpd],"[1]; 48 hrs, 0.1 mg/kg intra-tracheal, 0.1 mg/kg",1325 ng/g and 750 ng/g and 778 ng/g
same,Mean [cmpd],"[1]; 48 hrs, 0.1 mg/kg intra-tracheal",951 ng/g
same,[cmpd],"[1]; 168 hrs, 0.1 mg/kg intra-tracheal, 0.1 mg/kg",272 ng/g and 636 ng/g and 300 ng/g
same,Mean [cmpd],"[1]; 168 hrs, 0.1 mg/kg intra-tracheal",403 ng/g
same,Ratio Mean [lung] [cmpd]/PCT AU01/01128 compound 3,"[1]; rat lung, 48 hrs, 0.1 mg/kg intra-tracheal",0.68
same,Ratio Mean [lung] [cmpd]/PCT AU01/01128 compound 3,"[1]; rat lung, 168 hrs, 0.1 mg/kg intra-tracheal",0.41
same,EC50 PRA B/HongK,[4],0.316 ng/mL
same,EC50 PRA B/Yam,[12],0.022 ng/mL
same,EC50 PRA A/New,[5],0.06 ng/mL
same,EC50 PRA A/Bay,[6],0.009 ng/mL
same,EC50 PRA A/WSN,[7],0.02 ng/mL
same,EC50 PRA A/Syd,[9],0.05 ng/mL
same,EC50 PRA A/Vic,[10],0.003 ng/mL
same,EC50 PRA A/Pan,[11],0.03 ng/mL
